# Measured values published in paper PMC9925730, “Controlled sequential in situ self-assembly and disassembly of a fluorogenic cisplatin prodrug for cancer theranostics” (Nature Communications, 2023).
# Key:
# [1] = GSH-triggered reduction, disassembly of Pt^IVNPs and CDDP release in solution (HPLC, DLS, TEM, ICP-OES); design: amount of compound in the P-CyPt solution (HPLC, Fig. 2h) / mean size by TEM (Fig. 2i) / mean size by DLS (Fig. 2i): unit not given here; settings: for Pt release (ICP-OES, Fig. 2h) / amount of compound in the P-CyPt solution (HPLC, Fig. 2h) / mean size by DLS (Fig. 2i) / mean size by TEM (Fig. 2i): P-CyPt 10 μM
# Description: To evaluate the ALP-triggered dephosphorylation and in situ self-assembly process, a solution of P-CyPt (10 μM) in Tris buffer (1 mL) was incubated with ALP (100 U/L) at 37 °C. HPLC, DLS, and TEM analyses were performed at 0, 5, 10, 15, 20, and 30 min. To evaluate the GSH-triggered reduction and disassembly process, P-CyPt (10 μM) in Tris buffer (1 mL) was first incubated with ALP (100 U/L) at 37 °C for 30 min to allow the formation of Pt^IVNPs. The solution was then treated with 10 mM GSH at 37 °C, which was monitored by HPLC, DLS, and TEM at 10, 20, 30, 40, 50, and 60 min.
# (a) 5 mM GSH 10 mM GSH(b ) (c)
# 60 min 60 min CyPt Cy- CO O H
# Time (min) Time (min) Time (min)
# Supplementary Figure 9. HPLC traces of the time-dependent conversion of PtIVNPs (CyPt) into Cy-COOH under incubation with 5 mM (a) or 10 mM GSH (b) in Tris buffer. (c) The conversion curves of PtIVNPs (CyPt) into Cy-COOH under incubation with 5 mM (red) or 10 mM GSH (black) in Tris buffer. P-CyPt (10 μM) was incubated with ALP (100 U/L, 37 °C) in Tris buffer for 30 min to allow complete dephosphorylation and in situ self-assembly into PtIVNPs. Then, GSH at a concentration of 5 mM or 10 mM was added and incubated for another 0, 10, 20, 30, 40, 50, and 60 min. The amounts of CyPt and Cy-COOH at each time point were quantified by HPLC.
# Date are mean ± s.d. (n = 3 independent experiments). […]
# Release of CDDP from PtIVNPs during disassembly process. P-CyPt (10 μM) in 5 mL Tris buffer was incubated with ALP (100 U/L) at 37 °C for 30 min to form PtIVNPs, followed by addition with 10 mM GSH at 37 °C. After 10, 20, 30, 40, 50 and 60 min, 50 mM N-ethylmaleimide was added into the solution to scavenge GSH. The reaction solution was centrifuged at 13,000 × g and the supernatant was collected. The supernatants were digested with concentrated HNO3 (65~70%) and HCl (36~38%) at 90 °C for 24 h. The solution was diluted to 5 mL 2% HNO3 and 5% HCl solution, and the concentration of Pt element was measured by ICP-OES, which was further applied to calculate the amount of CDDP (denoted as NPt) released in the solution. The percentage of Pt release at each time point was calculated according to the formula:
# Pt release % = NPt/N0 × 100% (9)
# Where N0 represents the total amount of Pt in the in situ formed PtIVNPs, and NPt represents the amount of Pt released from PtIVNPs following incubation with GSH.
# Characterization of enzyme kinetics of P-CyPt towards ALP. Briefly, varying concentrations of P-CyPt (0.5, 1.0, 2.0, 3.0, 4.0, and 5.0 μM) in 100 μL Tris buffer were placed in a 96-well black plate. The reactions were initiated upon addition of 100 μL ALP (30 U/L) to each solution. The resulting fluorescence intensities in each well in the first five minutes were recorded on a Spark™ 10M Multimode Microplate Reader (λex/em = 680/710 nm). The amount of CyPt at each time point was determined by a standard curve under the same conditions. Kinetics values, including Km and Vmax, were determined according to the Lineweaver-Burk plot.
# Determination of the sensitivity of P-CyPt towards ALP. To evaluate the sensitivity of P-CyPt towards ALP, P-CyPt (10 μM) was incubated with varying concentrations of […]
# 30 min, and the fluorescence spectra were then recorded on a HORIBA Jobin Yvon Fluoromax-4 fluorometer, with an excitation at 680 nm. The resulting fluorescence intensities at 710 nm were plotted to the con centrations of ALP, and a linear regression fitted from 0 -20 U/L ALP was obtained, affording the slope k. The detection limit was calculated from 3σ/k, where σ represents the standard deviation of 11 blank […]
# Determination of the specificity towards ALP. The specificity towards ALP in vitro was evaluated based on fluorescence, respectively. P-CyPt (10 μM) in Tris buffer was incubated with 10 nmol/L of MMP-2, 100 U/L of γ-glutamyl transferase (GGT), 100 U/L Cathepsin B (CTB), 0.2 μg/mL of Caspase-3/7, 2.5 mg/mL of Trypsin, 100 U/L of ALP or 100 U/L ALP pretreated with its inhibitors, Na 3VO4 (100 μM) for 10 min. The […]
# [2] = system: supercoiled pBR322 plasmid DNA; assay: Ability to break DNA double strand (agarose gel electrophoresis); format: biochemical; settings: 100 μM, 37 °C, 16 h
# [3] = system: s.c. HeLa tumors; assay: Chemotherapy of s.c. HeLa tumors in vivo; design: species or system mice; settings: for tumor volume growth on day 21: s.c. HeLa, 2.25 mg kg^−1 Pt i.v. on day 0, 3, 6, 9, 12
# Description: Sixteen mice with s.c. […] Each experiment was conducted in four mice.
# [4] = system: orthotopic HepG2/Luc liver tumors; assay: NIR FL imaging of orthotopic HepG2/Luc liver tumors in vivo; design: species or system mice
# Description: (100 μM, in 200 μL saline). Whole body FL images of mice prior to (pre) and at 1 h, 2 h, 4 h, 8 h post injection of P-CyPt or […] acquired on the IVIS Lumina XR III imaging system, using a 660 nm excitation filter and a 750 ± 50 nm emission filter. Each experiment was conducted in three mice. The FL intensities were quantified by the region of interest (ROI) measurement using Living Image Software (4.5.2, PerkinElmer, MA, U.S.A). […] (500 μM, in 200 μL saline). The PA images of the s.c. HeLa tumors in mice prior to (pre), and at 1, 2, 4 h post injection were captured on the Vevo 2100 LAZR system (FUJIFILM VisualSonics), with excitation at 700 and 750 nm. The PA intensities were quantified by the equipped software.
# [5] = ALP 30 min then GSH 10 mM 10 min (time 40)
# [6] = ALP 30 min then GSH 10 mM 20 min (time 50)
# [7] = ALP 30 min then GSH 10 mM 30 min (time 60)
# [8] = ALP 30 min then GSH 10 mM 40 min (time 70)
# [9] = ALP 30 min then GSH 10 mM 50 min (time 80)
# [10] = ALP 30 min then GSH 10 mM 60 min (time 90)
compound,measurement,setting,value
CC1(C)C(/C=C/C2=C3Oc4cc(OP(=O)(O)O)c(Cl)cc4C=C3CCC2)=[N+](CCCNC(=O)[C@@H](Cc2ccccc2)NC(=O)[C@@H](Cc2ccccc2)NC(=O)CCC(=O)[O][Pt]([NH2])([NH2])([OH])([Cl])[Cl])c2ccccc21 [P-CyPt],"Pt release (ICP-OES, Fig. 2h)",[1]; [5],19.98%
same,"amount of compound in the P-CyPt solution (HPLC, Fig. 2h)",[1]; [5],0
same,mean size by DLS (Fig. 2i),[1]; [5],133.97
same,mean size by TEM (Fig. 2i),[1]; [5],128.24
same,"Pt release (ICP-OES, Fig. 2h)",[1]; [6],42.65%
same,"amount of compound in the P-CyPt solution (HPLC, Fig. 2h)",[1]; [6],0
same,mean size by DLS (Fig. 2i),[1]; [6],96.71
same,mean size by TEM (Fig. 2i),[1]; [6],91.24
same,"Pt release (ICP-OES, Fig. 2h)",[1]; [7],64.34%
same,"amount of compound in the P-CyPt solution (HPLC, Fig. 2h)",[1]; [7],0
same,mean size by DLS (Fig. 2i),[1]; [7],62.38
same,mean size by TEM (Fig. 2i),[1]; [7],68.92
same,"Pt release (ICP-OES, Fig. 2h)",[1]; [8],80.43%
same,"amount of compound in the P-CyPt solution (HPLC, Fig. 2h)",[1]; [8],0
same,mean size by DLS (Fig. 2i),[1]; [8],35.90
same,mean size by TEM (Fig. 2i),[1]; [8],38.87
same,"Pt release (ICP-OES, Fig. 2h)",[1]; [9],95.70%
same,"amount of compound in the P-CyPt solution (HPLC, Fig. 2h)",[1]; [9],0
same,mean size by DLS (Fig. 2i),[1]; [9],14.84
same,mean size by TEM (Fig. 2i),[1]; [9],11.31
same,"Pt release (ICP-OES, Fig. 2h)",[1]; [10],99.63%
same,"amount of compound in the P-CyPt solution (HPLC, Fig. 2h)",[1]; [10],0
same,mean size by DLS (Fig. 2i),[1]; [10],0.00
same,mean size by TEM (Fig. 2i),[1]; [10],0.00
same,effect on supercoiled pBR322 DNA,[2]; plus GSH (2 mM),can significantly relax the supercoiled DNA
same,effect on supercoiled pBR322 DNA,[2]; without GSH,cannot bind to and break the DNA double strand
same,average tumor weight at end of treatment,[3]; day 21,significantly smaller than the other three groups
same,tumor volume growth on day 21,[3],no apparent tumor growth
same,quantified FL intensity of HepG2/Luc liver tumors (Fig. 5b),[4]; 2 h,9.80E+08
same,quantified FL intensity of HepG2/Luc liver tumors (Fig. 5b),[4]; 4 h,8.66E+08
same,quantified FL intensity of HepG2/Luc liver tumors (Fig. 5b),[4]; 8 h,3.61E+08
same,quantified FL intensity of HepG2/Luc liver tumors (Fig. 5b),"[4]; i.v. 100 μM, 200 μL, 1 h",1.05E+09
CC1(C)C(/C=C/C2=C3Oc4cc(O)c(Cl)cc4C=C3CCC2)=[N+](CCCNC(=O)[C@@H](Cc2ccccc2)NC(=O)[C@@H](Cc2ccccc2)NC(=O)CCC(=O)[O][Pt]([NH2])([NH2])([OH])([Cl])[Cl])c2ccccc21 [CyPt],reduction of CyPt in Pt^IVNPs into Cy-COOH (HPLC),"[1]; 5 or 10 mM GSH, after 60 min",completely reduced into Cy-COOH
same,"amount of compound in the P-CyPt solution (HPLC, Fig. 2h)",[1]; [5],82.67
same,"amount of compound in the P-CyPt solution (HPLC, Fig. 2h)",[1]; [6],59.68
same,"amount of compound in the P-CyPt solution (HPLC, Fig. 2h)",[1]; [7],38.50
same,"amount of compound in the P-CyPt solution (HPLC, Fig. 2h)",[1]; [8],22.16
same,"amount of compound in the P-CyPt solution (HPLC, Fig. 2h)",[1]; [9],9.16
same,"amount of compound in the P-CyPt solution (HPLC, Fig. 2h)",[1]; [10],0.00
"[NH2][Pt]([NH2])([Cl])[Cl] [CDDP, cisplatin]",effect on supercoiled pBR322 DNA,[2]; plus GSH (2 mM),prevent its binding with the DNA double strand
same,effect on supercoiled pBR322 DNA,[2]; without GSH,cannot obviously relax or break
same,tumor volume growth on day 21,[3],~ 15.8 fold
